Entries after “also recorded” stand apart in the source; their conditions may differ.
What was measured:
[1] = test system: Notch target genes HEY1 and HES1; assay: HEY1 and HES1 expression in ER+ cell lines (real-time PCR, Western Blot); assay type: cell-based, human; details: for expression of HEY1 and HES1: MCF-7, T47D, ZR-75-1, 6 days, in the ALDH+ subpopulation
Experimental: MCF7, T47D and ZR-75-1 cell lines were purchased from American Tissue Culture Collection (ATCC) and cultured in DMEM/F-12, GlutaMAX (Gibco) with 10% FBS (Gibco). Cells were treated for 3 days or 6 days with ethanol (control), 10^-6M 4-OH-tamoxifen or 10^−7M fulvestrant and/or with 10 μM of gamma-secretase inhibitor RO4929097 (Cellagen Technology) or DMSO (control).
Total RNA was extracted using the RNeasy Plus Mini Kit (QIAGEN, 74104) and the concentration and purity determined using an ND-1000 spectrophotometer (NanoDrop Technologies). Reverse transcription of 1 μg of RNA was performed with Oligo(dT) using the TaqMan Reverse Transcription Reagents from Applied Biosystems (N8080234). Samples were incubated on a thermal cycler (MJ Research) for 10 minutes at 25° C., 30 minutes at 48° C. and 5 minutes at 95° C. Quantitative real-time PCR reactions were set up in triplicate in 384-well plates and performed on the 7900 PCR machine (Applied Biosystems) using TaqMan® Universal PCR Master Mix (Applied Biosystems) and probes from Universal Probe Library (Roche). Conditions used for amplification of cDNA fragments were as follows: 95° C. for 5 min, 40 cycles of amplification-95 C for 15 sec, 60 C for 1 min. The expression levels were calculated using the ΔΔCt method and normalised to the housekeeping genes 36B4 and GAPDH. The sequences of the primers and probes used can be found in the table below.
Proteins were extracted with Protein Lysis Buffer (25 mM HEPES, 50 mM NaCl, 30 mM NaPP, 50 mM NaF, 1% Triton-X-100, 10% Glycerol, 5 mM EDTA, Protease Inhibitor cocktail, 1 μM PMSF). Lysates were placed on a rotator for 1 hour at 4° C., then were centrifuged at 10000 g at 4° C. for 10 min, and supernatants were collected. Protein concentrations were assessed using the BCA Protein Assay Kit (Thermo Scientific, 23225). Proteins were separated on a 10% gel (Biorad, 456-1033) by SDS-PAGE at 200V for 1 hour, and then were transferred on polyvinylidene difluoride (PVDF) membranes (BioRad, 170-4157) at 25 V/1,300 mA for 15 min using a Trans Blot Turbo (BioRad, 170-4155). […]

[2] = test system: Early (HBC×34) and metastatic (BB3RC31) BC estrogen-dependent patient-derived xenograft tumors; assay: 14 day in vivo window treatment of ER+ PDX tumors: tumor growth, Ki67, ER, PR; set-up: species or system mice; details: for proliferation marker Ki67 / tumor growth: 14 days, tamoxifen 10 mg/kg/day oral, fulvestrant 200 mg/kg/week s.c., RO4929097 3 mg/kg/day oral; for ER and PR protein expression levels: PDX tumors, 14 days in vivo, immunohistochemistry
Experimental: Early (HBC×34) and metastatic (BB3RC31) BC estrogen-dependent PDXs were administered with 8 ug/ml of 17-beta estradiol in drinking water at all times and were treated with drugs when tumors reached 200-300 mm^3. Experiments were performed using PDX tumors between passages 5 and 8. Animal weight and tumor size was measured bi-dimensionally using callipers twice a week. The HBC×34 model was kindly provided by Dr Elisabetta Marangoni from Institute Curie, Paris (Cottu et al., 2012).
Tamoxifen citrate (Sigma, T9262, 10 mg/kg/day) and RO4929097 (Cellagen Technology, 3 mg/kg/day) were administered by oral gavage (0.1 ml/dose) on a five day from seven basis (weekends excluded) for fourteen days. Tamoxifen citrate and RO4929097 were prepared in 1% carboxymethylcellulose (Sigma, C9481) dissolved in distilled water. Fulvestrant (kindly provided by Astrazeneca, 200 mg/kg/week) was administered by subcutaneous injection (0.1 ml/dose) on a weekly basis for fourteen days. The HBC×22 and HBC×34 tamoxifen-resistant PDXs have been established by our collaborators in the Curie Institute (Cottu el al, 2014) and were treated for fourteen days in the presence or absence of the gamma-secretase inhibitor RO4929097 (10 mg/kg/day, oral gavage). Xenografts were collected in ice cold DMEM media for live cell assays, histological analysis and RNA and protein extraction. Patient-derived xenograft single cell suspension was obtained using a collagenase-hyaluronidase mixture for digestion (Stem Cell Technologies).
Tissue microarrays (TMAs) were constructed from all formalin fixed and paraffin embedded tissue. 3×1 mm cores were taken per tissue block, and TMAs were cut into 3 μm thick sections and analysed by immunohistochemistry. Antibodies utilised were anti-ERα (Thermo, SP1), anti-PgR (Dako, M3569), anti-Ki67 (Dako, M7240), anti-HER2 (Vector Laboratories, VP-C380), anti-Hes1 (Abcam, ab108937) and anti-ALDH1 (BD Biosciences, 611195). Antigen retrieval was performed either using Target Retrieval Solution pH9 (Dako S2367, for ER, PR, Ki67 and ALDH1), Target Retrieval Solution pH6 (Dako S1699, for Hes1) or in 10 mM Citrate buffer (for HER2) in a […] water bath for 25 mins. All antibodies were detected using Dako EnVision Detection System Peroxidase/DAB, Rabbit/Mouse (Dako, K5007) and sections were counterstained with haematoxylin. Staining was quantified using Definiens Tissue Studio software. The percentage of positive epithelial cells was scored on 3 cores per tissue sample. For ER immunocytochemistry, approximately 50.000 cells were FACS sorted and then cytospun for 5 min at 80 G on poly-lysine coated slides. Cells were fixed with 4% paraformaldehyde (5 min), permeabilised with acetone (4 min) and methanol (2 min), and then blocked for 10 min with Peroxidase Blocking Reagent (Dako, S2001) and further 10 min with 3% goat serum before incubation with primary antibody. ER was then detected as described above for immunohistochemistry.

SMILES | expression of HEY1 and HES1 [1] | proliferation marker Ki67 [2] | tumor growth [2] | ER and PR protein expression levels [2] | HEY1 and HES1 mRNA and protein levels ([1]; MCF-7 cells pre-treated six days with RO4929097 10 μM) | PR expression ([2]; HBC×34 (early BC) PDX)
C[C@]12CC[C@@H]3c4ccc(O)cc4C[C@@H](CCCCCCCCC[S+]([O-])CCCC(F)(F)C(F)(F)F)[C@H]3[C@@H]1CC[C@@H]2O (stereo partly drawn) [fulvestrant] | preferentially increased | decrease; also recorded: reduced | reduced | reduced | – | –
CC(C)(C(=O)NCC(F)(F)C(F)(F)F)C(=O)N[C@@H]1C(=O)Nc2ccccc2-c2ccccc21 [RO4929097] | – | no impact | no impact | not modified | decreased | –
CC/C(=C(\c1ccccc1)c1ccc(OCCN(C)C)cc1)c1ccccc1 [tamoxifen, (Z)-2-[4-(1,2-diphenylbut-1-enyl)phenoxy]-N,N-dimethylethanamine] | preferentially increased | decrease; also recorded: reduced | reduced | – | – | down-regulated

Reference: patent US20160376659A1, “Breast Cancer Biomarker” (The University of Manchester, priority 2015, published 2016)
